Assay results as given in ChEMBL document CHEMBL3046293, “Fungicidal Activities of -Methoxyphenylacetic Acid Derivatives” (2002).

Assays:
Format in all cases: functional
Pyricularia oryzae = assay: Fungicidal activity against Magnaporthe oryzae Cav. race 003 assessed as rice blast disease control at 125 ppm treated 24 hr before inoculation by preventive manner
Botrytis cinerea [1] = assay: Fungicidal activity against Botryotinia fuckeliana assessed as cucumber gray mold disease control at 31.3 ppm treated 24 hr before inoculation by preventive manner
Podosphaera fuliginea [2] = assay: Fungicidal activity against Podosphaera fuliginea assessed as cucumber powdery mildew disease control at 500 ppm treated 24 hr before inoculation by preventive manner
Podosphaera fuliginea [3] = assay: Fungicidal activity against Podosphaera fuliginea assessed as cucumber powdery mildew disease control at 7.8 ppm treated 24 hr before inoculation by preventive manner
Botrytis cinerea [4] = assay: Fungicidal activity against Botryotinia fuckeliana assessed as cucumber gray mold disease control at 125 ppm treated 24 hr before inoculation by preventive manner
[5] = test system: Pseudoperonospora cubensis; assay: Fungicidal activity against Pseudoperonospora cubensis assessed as cucumber downy mildew disease control at 125 ppm foliar application 24 hr after inoculation by curative manner
[6] = test system: Pseudoperonospora cubensis; assay: Fungicidal activity against Pseudoperonospora cubensis assessed as cucumber downy mildew disease control at 0.5 ppm foliar application 24 hr before inoculation onto the abaxial(treated) surface of leaf by preventive manner
[7] = test system: Pseudoperonospora cubensis; assay: Fungicidal activity against Pseudoperonospora cubensis assessed as cucumber downy mildew disease control at 2 ppm foliar application 24 hr before inoculation onto the abaxial(treated) surface of leaf by preventive manner
[8] = test system: Pseudoperonospora cubensis; assay: Fungicidal activity against Pseudoperonospora cubensis assessed as cucumber downy mildew disease control at 7.8 ppm foliar application 24 hr before inoculation onto the abaxial(treated) surface of leaf by preventive manner
[9] = test system: Pseudoperonospora cubensis; assay: Fungicidal activity against Pseudoperonospora cubensis assessed as cucumber downy mildew disease control at 31.3 ppm foliar application 24 hr before inoculation onto the abaxial(treated) surface of leaf by preventive manner
[10] = test system: Pseudoperonospora cubensis; assay: Fungicidal activity against Pseudoperonospora cubensis assessed as cucumber downy mildew disease control at 125 ppm foliar application 24 hr before inoculation onto the abaxial(treated) surface of leaf by preventive manner
[11] = test system: Pseudoperonospora cubensis; assay: Fungicidal activity against Pseudoperonospora cubensis assessed as cucumber downy mildew disease control at 0.5 ppm foliar application 24 hr before inoculation onto the adaxial(treated) surface of leaf by preventive manner
[12] = test system: Pseudoperonospora cubensis; assay: Fungicidal activity against Pseudoperonospora cubensis assessed as cucumber downy mildew disease control at 2 ppm foliar application 24 hr before inoculation onto the adaxial(treated) surface of leaf by preventive manner
[13] = test system: Pseudoperonospora cubensis; assay: Fungicidal activity against Pseudoperonospora cubensis assessed as cucumber downy mildew disease control at 7.8 ppm foliar application 24 hr before inoculation onto the adaxial(treated) surface of leaf by preventive manner
[14] = test system: Pseudoperonospora cubensis; assay: Fungicidal activity against Pseudoperonospora cubensis assessed as cucumber downy mildew disease control at 31.3 ppm foliar application 24 hr before inoculation onto the adaxial(treated) surface of leaf by preventive manner
[15] = test system: Pseudoperonospora cubensis; assay: Fungicidal activity against Pseudoperonospora cubensis assessed as cucumber downy mildew disease control at 125 ppm foliar application 24 hr before inoculation onto the adaxial(treated) surface of leaf by preventive manner
[16] = test system: Pseudoperonospora cubensis; assay: Fungicidal activity against Pseudoperonospora cubensis assessed as cucumber downy mildew disease control at 0.5 ppm foliar application 24 hr after inoculation by curative manner
[17] = test system: Pseudoperonospora cubensis; assay: Fungicidal activity against Pseudoperonospora cubensis assessed as cucumber downy mildew disease control at 2 ppm foliar application 24 hr after inoculation by curative manner
[18] = test system: Pseudoperonospora cubensis; assay: Fungicidal activity against Pseudoperonospora cubensis assessed as cucumber downy mildew disease control at 7.8 ppm foliar application 24 hr after inoculation by curative manner
[19] = test system: Pseudoperonospora cubensis; assay: Fungicidal activity against Pseudoperonospora cubensis assessed as cucumber downy mildew disease control at 31.3 ppm foliar application 24 hr after inoculation by curative manner

Row | SMILES | Activity (Pyricularia oryzae) [%] | Activity (Botrytis cinerea [1]) [%] | Activity (Podosphaera fuliginea [2]) [%] | Activity (Podosphaera fuliginea [3]) [%] | Activity (Botrytis cinerea [4]) [%] | Activity [5] [%] | Activity [6] [%] | Activity [7] [%] | Activity [8] [%] | Activity [9] [%] | Activity [10] [%] | Activity [11] [%] | Activity [12] [%] | Activity [13] [%] | Activity [14] [%] | Activity [15] [%] | Activity [16] [%] | Activity [17] [%] | Activity [18] [%] | Activity [19] [%]
1 | CNC(=O)C(OC)c1cccc(COc2cc(C)cc(C)c2)c1 (stereo unspecified) | 90 | 50 | <90 | – | – | – | – | – | – | – | – | – | – | – | – | – | – | – | – | –
2 | CNC(=O)C(OC)c1cccc(COc2ccccc2Br)c1 (stereo unspecified) | 90 | – | – | 90 | 50 | – | – | – | – | – | – | – | – | – | – | – | – | – | – | –
3 | COC(=O)C(C)N(C(=O)Cc1ccccc1)c1c(C)cccc1C (stereo unspecified) [BENALAXYL] | – | – | – | – | – | 80 | 0 | 20 | 40 | 70 | 97 | 0 | 20 | 20 | 70 | 97 | 0 | 10 | 40 | 80
